The values that follow are results of earlier work, collected in patent US7189385B2, “Tooth whitening compositions” (Discus Dental Impressions, Inc., priority 1997, dated 2007).

The conditions of this series: listed as GRAS, 21 CFR 184.1901.

On to `CC(=O)OCC(COC(C)=O)OC(C)=O` [Glyceryl triacetate], for which the toxicity result was “extremely low order of toxicity”.
